According to the RepoRT retention time repository:

Assay: RP, Waters CORTECS UPLC C18, 100 × 2.1 mm, 1.6 µm, 40 °C, 0.4 mL/min, estimated dead time 0.55 min; A: water + 0.1% formic acid, pH 3; B: acetonitrile + 0.1% formic acid, pH 3; gradient (min/%B) 0/5 1.12/5 6.41/99.5 10.01/99.5
Conditions: stereoisomer not certain

In order of falling LC retention time:
1. CC(C)CCC[C@@H](C)[C@H]1CC[C@H]2[C@@H]3[C@H](O)CC4=CC(=O)CC[C@]4(C)[C@H]3CC[C@]12C [7α-Hydroxy-4-cholesten-3-one]  7.4 min
2. CCC(C)C1OC2(C=CC1C)CC1CC(CC=C(C)C(OC3CC(OC)C(OC4CC(OC)C(O)C(C)O4)C(C)O3)C(C)C=CC=C3COC4C(O)C(C)=CC(C(=O)O1)C34O)O2 (configuration not stated) [Mixture of Avermectin B1a and B1b]  6.5 min
3. CCOP(=S)(OCC)ON=C(C#N)c1ccccc1 [Phoxim]  5.44 min
4. CCC(CC)Nc1c([N+](=O)[O-])cc(C)c(C)c1[N+](=O)[O-] [Pendimethalin (Penoxalin)]  5.42 min
5. C=CCNC(=O)c1c([Si](C)(C)C)sc(C)c1C [Silthiofam]  5.36 min
6. CCCC1COC(Cn2cncn2)(c2ccc(Cl)cc2Cl)O1 (configuration not stated) [Propioconazole]  5.3 min
7. CC(CCC(=O)NCC(=O)O)C1CCC2C3CCC4CC(O)CCC4(C)C3CCC12C (configuration not stated) [Glycolithocholic acid]  5.25 min
8. CC12CC1(C)C(=O)N(c1cc(Cl)cc(Cl)c1)C2=O (configuration not stated) [Procymidone]  5.21 min
9. CC#Cc1cc(C)nc(Nc2ccccc2)n1 [Mepanipyrim]  5.11 min
10. CCOC(=O)OC1=C(c2cc(C)ccc2C)C(=O)NC12CCC(OC)CC2 (configuration not stated) [Spirotetramat]  4.8 min
11. C#CCN1C(=O)COc2cc(F)c(N3C(=O)C4=C(CCCC4)C3=O)cc21 [Flumioxazin]  4.77 min
12. O=C(Nc1ccccc1)Nc1ccnc(Cl)c1 [Forchlorfenuron]  4.19 min
13. Cc1cc(C)nc(Nc2ccccc2)n1 [Pyrimethanil]  4.13 min
14. CCOC(=O)CC(SP(=O)(OC)OC)C(=O)OCC (configuration not stated) [Malaoxon]  4.05 min
15. CCCCCCCCC[n+]1cccc(S(=O)(=O)[O-])c1 [C9-APS]  3.99 min
16. NC1=C(Cl)C(=O)c2ccccc2C1=O [Quinoclamine]  3.86 min
17. CCNc1nc(NC(C)CC)nc(OC)n1 (configuration not stated) [Secbumeton]  3.53 min
18. Cc1cccc2sc3nncn3c12 [Tricyclazol]  3.38 min
19. CC(=NC#N)N(C)Cc1ccc(Cl)nc1 [Acetamiprid]  3.33 min
20. CC1(C)COC(=O)C1O (configuration not stated) [PANTOLACTONE]  3.31 min
21. O=C(O)Cc1c[nH]c2ccc(O)cc12 [5-HYDROXYINDOLEACETATE]  2.47 min
22. CCCCC[n+]1cccc(S(=O)(=O)[O-])c1 [C5-APS]  2.31 min
23. CC=C(C)C(=O)NCC(=O)O [Tiglyl Glycine]  2.22 min
24. O=C(O)c1cccc(O)c1O [2,3-DIHYDROXYBENZOATE]  1.66 min
25. NC(Cc1ccccc1)C(=O)O (configuration not stated) [PHENYLALANINE]  1.25 min
26. NCC(O)c1ccccc1 (configuration not stated) [PHENYLETHANOLAMINE]  0.755 min
27. O=c1[nH]c(=O)c2ncn(C3OC(CO)C(O)C3O)c2[nH]1 (configuration not stated) [XANTHOSINE]  0.752 min
